Measurements reported in patent US9833497B2, “Human originated EGF domain proteins and use of the same” (CHENGDU SOURCEBIO LIMITED-LIABILITY COMPANY, priority 2013, dated 2017).

Legend:
Assay type in all cases: cell-based
Pseudomonas aeruginosa = experiment: MIC against Gram-negative bacteria: Pseudomonas aeruginosa
Method in brief: (§1)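 Broth microdilution, LB medium, final inoculum 5×10^5 CFU/mL from McFarland 0.5 cultures. Recombinant human EGF domain proteins tested in two-fold steps, n=3. MIC: lowest concentration, no growth.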

Serratia marcescens = experiment: MIC against Gram-negative bacteria: Serratia marcescens
Method in brief: as §1

Klebsiella pneumonia = experiment: MIC against Gram-negative bacteria: Klebsiella pneumonia
Method in brief: as §1

Moraxella catarrhalis = experiment: MIC against Gram-negative bacteria: Moraxella catarrhalis
Method in brief: as §1

E. coli BL21 = experiment: MIC against Gram-negative bacteria: E. coli BL21
Method in brief: as §1

E. coli DH5α = experiment: Antibacterial activity: MIC and growth curve against E. coli DH5α in 96-well plate; details: minimal inhibitory concentration against E. coli DH5α; 96-well plate, 5×10^5 CFU/mL, 37° C., judged after 8 h
Method in brief: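 MIC taken as lowest protein level with no bacterial growth, tracked by A600 every 30 min during 37 °C, 175 rpm culture. Two-fold protein series 50-12.5 μg/mL final, triplicate wells, against 5×10^5 CFU/mL of LB-washed mid-log cells.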

Citrobacter diversus = experiment: MIC against Gram-negative bacteria: Citrobacter diversus
Method in brief: as §1

Aeromonas hydrophila = experiment: MIC against Gram-negative bacteria: Aeromonas hydrophila
Method in brief: as §1

Proteus mirabilis = experiment: MIC against Gram-negative bacteria: Proteus mirabilis
Method in brief: as §1

Enterobacter cloacae = experiment: MIC against Gram-negative bacteria: Enterobacter cloacae
Method in brief: as §1

Proteus vulgaris = experiment: MIC against Gram-negative bacteria: Proteus vulgaris
Method in brief: as §1

[1] = 10 h cultivation at 37° C., 5×10^5 CFU/mL, two-fold serial dilution
[2] = P. aeruginosa, 10 h cultivation at 37° C.
[3] = S. marcescens, 10 h cultivation at 37° C.
[4] = K. pneumonia, 10 h cultivation at 37° C.
[5] = M. catarrhalis, 10 h cultivation at 37° C.
[6] = E. coli BL21, 10 h cultivation at 37° C.
[7] = C. diversus, 10 h cultivation at 37° C.
[8] = A. hydrophila, 10 h cultivation at 37° C.
[9] = P. mirabilis, 10 h cultivation at 37° C.
[10] = E. cloacae, 10 h cultivation at 37° C.
[11] = P. vulgaris, 10 h cultivation at 37° C.

## PRT248 (DVDECSARRGGCPQRCVNTAGSYWCQCWEGHSLSADGTLCV; listed as Homo sapiens)
Pseudomonas aeruginosa; P. aeruginosa, 10 h cultivation at 37° C., 5×10^5 CFU/mL
  MIC (μg/mL) P. aeruginosa: 12.5 µg/mL
Serratia marcescens; S. marcescens, 10 h cultivation at 37° C., 5×10^5 CFU/mL
  MIC (μg/mL) S. marcescens: 12.5 µg/mL
Klebsiella pneumonia; K. pneumonia, 10 h cultivation at 37° C., 5×10^5 CFU/mL
  MIC (μg/mL) K. pneumonia: 25 µg/mL
Moraxella catarrhalis; M. catarrhalis, 10 h cultivation at 37° C., 5×10^5 CFU/mL
  MIC (μg/mL) M. catarrhalis: 25 µg/mL
E. coli BL21; E. coli BL21, 10 h cultivation at 37° C., 5×10^5 CFU/mL
  MIC (μg/mL) E. coli BL21: 25 µg/mL
E. coli DH5α
  MIC: 12.5 µg/mL
Citrobacter diversus; C. diversus, 10 h cultivation at 37° C., 5×10^5 CFU/mL
  MIC (μg/mL) C. diversus: 12.5 µg/mL
Aeromonas hydrophila; A. hydrophila, 10 h cultivation at 37° C., 5×10^5 CFU/mL
  MIC (μg/mL) A. hydrophila: 25 µg/mL
Proteus mirabilis; P. mirabilis, 10 h cultivation at 37° C., 5×10^5 CFU/mL
  MIC (μg/mL) P. mirabilis: 12.5 µg/mL
Enterobacter cloacae; E. cloacae, 10 h cultivation at 37° C., 5×10^5 CFU/mL
  MIC (μg/mL) E. cloacae: 12.5 µg/mL
Proteus vulgaris; P. vulgaris, 10 h cultivation at 37° C., 5×10^5 CFU/mL
  MIC (μg/mL) P. vulgaris: 25 µg/mL

## PRT1105 (EIDECWSQPCLNGATCQDALGAYFCDCAPGFLGDHCE; listed as Homo sapiens)
Pseudomonas aeruginosa; [1]
  MIC P. aeruginosa: 50 µg/mL
Serratia marcescens; [1]
  MIC S. marcescens: 50 µg/mL
Klebsiella pneumonia; [1]
  MIC K. pneumonia: 12.5 µg/mL
Moraxella catarrhalis; [1]
  MIC M. catarrhalis: 25 µg/mL
E. coli BL21; [1]
  MIC E. coli BL21: 25 µg/mL
E. coli DH5α
  MIC: 12.5 µg/mL
Citrobacter diversus; [1]
  MIC C. diversus: 12.5 µg/mL
Aeromonas hydrophila; [1]
  MIC A. hydrophila: 25 µg/mL
Proteus mirabilis; [1]
  MIC P. mirabilis: 50 µg/mL
Enterobacter cloacae; [1]
  MIC E. cloacae: 50 µg/mL
Proteus vulgaris; [1]
  MIC P. vulgaris: 12.5 µg/mL

## PRT1248 (SACYCSATSRCDPQTGACLCHAGWWGRSCN; listed as Homo sapiens)
Pseudomonas aeruginosa; Pseudomonas aeruginosa, 96-well plate, 5×10^5 CFU/mL, 37° C., 10 h
  MIC against P. aeruginosa: 25 µg/mL
Serratia marcescens; Serratia marcescens, 96-well plate, 5×10^5 CFU/mL, 37° C., 10 h
  MIC against S. marcescens: 25 µg/mL
Klebsiella pneumonia; Klebsiella pneumonia, 96-well plate, 5×10^5 CFU/mL, 37° C., 10 h
  MIC against K. pneumonia: 25 µg/mL
Moraxella catarrhalis; Moraxella catarrhalis, 96-well plate, 5×10^5 CFU/mL, 37° C., 10 h
  MIC against M. catarrhalis: 12.5 µg/mL
E. coli BL21; E. coli BL21, 96-well plate, 5×10^5 CFU/mL, 37° C., 10 h
  MIC against E. coli BL21: 25 µg/mL
E. coli DH5α
  MIC: 25 µg/mL
Citrobacter diversus; Citrobacter diversus, 96-well plate, 5×10^5 CFU/mL, 37° C., 10 h
  MIC against C. diversus: 25 µg/mL
Aeromonas hydrophila; Aeromonas hydrophila, 96-well plate, 5×10^5 CFU/mL, 37° C., 10 h
  MIC against A. hydrophila: 12.5 µg/mL
Proteus mirabilis; Proteus mirabilis, 96-well plate, 5×10^5 CFU/mL, 37° C., 10 h
  MIC against P. mirabilis: 25 µg/mL
Enterobacter cloacae; Enterobacter cloacae, 96-well plate, 5×10^5 CFU/mL, 37° C., 10 h
  MIC against E. cloacae: 12.5 µg/mL
Proteus vulgaris; Proteus vulgaris, 96-well plate, 5×10^5 CFU/mL, 37° C., 10 h
  MIC against P. vulgaris: 12.5 µg/mL

## PRT967 (ARDACESQPCRAGGTCSSDGMGFHCTCPPGVQGRQCE; listed as Homo sapiens)
Pseudomonas aeruginosa; [2]
  MIC: 12.5 µg/mL
Serratia marcescens; [3]
  MIC: 12.5 µg/mL
Klebsiella pneumonia; [4]
  MIC: 25 µg/mL
Moraxella catarrhalis; [5]
  MIC: 25 µg/mL
E. coli BL21; [6]
  MIC: 12.5 µg/mL
E. coli DH5α
  MIC: 50 µg/mL
Citrobacter diversus; [7]
  MIC: 12.5 µg/mL
Aeromonas hydrophila; [8]
  MIC: 25 µg/mL
Proteus mirabilis; [9]
  MIC: 12.5 µg/mL
Enterobacter cloacae; [10]
  MIC: 12.5 µg/mL
Proteus vulgaris; [11]
  MIC: 25 µg/mL

## PRT950 (CESGCASSPCQHGGSCHPQRQPPYYSCQCAPPFSGSRCE; listed as Homo sapiens)
Pseudomonas aeruginosa; [2]
  MIC: 50 µg/mL
Serratia marcescens; [3]
  MIC: 12.5 µg/mL
Klebsiella pneumonia; [4]
  MIC: 25 µg/mL
Moraxella catarrhalis; [5]
  MIC: 12.5 µg/mL
E. coli BL21; [6]
  MIC: 12.5 µg/mL
E. coli DH5α
  MIC: 50 µg/mL
Citrobacter diversus; [7]
  MIC: 25 µg/mL
Aeromonas hydrophila; [8]
  MIC: 50 µg/mL
Proteus mirabilis; [9]
  MIC: 50 µg/mL
Enterobacter cloacae; [10]
  MIC: 12.5 µg/mL
Proteus vulgaris; [11]
  MIC: 25 µg/mL
